Assay results published in patent US20130165475A1, “DEUTERIUM-ENRICHED HETEROCYCLIC COMPOUNDS AS KINASE INHIBITORS” (ASCEPION PHARMACEUTICALS, INC., priority 2010, published 2013).

Columns and labels:
[1] = Oral bioavailability study, Group 1 (mice); assay type: in vivo, male ICR mice
Description: Oral pharmacokinetic studies were performed on Example 2. Specifically, this compound was dissolved in PEG-400 (2:1 mixture of PEG400 and 0.01N HCL (v/v)) and administered orally to male ICR mice at a dose of 50 mg/kg. Mice blood was obtained via eyeball enucleation at 0.25, 0.5, 1, 2, 3, 4, 6, 8, 12 and 24 hours after administration. The concentration of Example 2 in blood was determined using appropriate internal standards and reverse phase HPLC with UV detection.
Control blood samples were also used to identify compound-specific peaks. The oral bioavailability was determined by comparing the dose corrected areas under plasma-concentration time curve (AUC) to infinity for Example 2, given orally and intravenously in mice.

EphB4 = target: T1, EphB4 (Homo sapiens, UniProt P54760); experiment: EphB4 cell-based assay (quantitative Western blotting, PC-3 cells, Ephrin-B2 stimulated); conditions: compound at 100 nM; PC-3 human prostate cancer cells; Ephrin-B2 stimulation; read-out: % EphB4 kinase activity remains
T1 construct: EphB4 autophosphorylation in PC-3 human prostate cancer cells; host or cells: PC-3 human prostate cancer cells
T1 sequence (P54760 16-987): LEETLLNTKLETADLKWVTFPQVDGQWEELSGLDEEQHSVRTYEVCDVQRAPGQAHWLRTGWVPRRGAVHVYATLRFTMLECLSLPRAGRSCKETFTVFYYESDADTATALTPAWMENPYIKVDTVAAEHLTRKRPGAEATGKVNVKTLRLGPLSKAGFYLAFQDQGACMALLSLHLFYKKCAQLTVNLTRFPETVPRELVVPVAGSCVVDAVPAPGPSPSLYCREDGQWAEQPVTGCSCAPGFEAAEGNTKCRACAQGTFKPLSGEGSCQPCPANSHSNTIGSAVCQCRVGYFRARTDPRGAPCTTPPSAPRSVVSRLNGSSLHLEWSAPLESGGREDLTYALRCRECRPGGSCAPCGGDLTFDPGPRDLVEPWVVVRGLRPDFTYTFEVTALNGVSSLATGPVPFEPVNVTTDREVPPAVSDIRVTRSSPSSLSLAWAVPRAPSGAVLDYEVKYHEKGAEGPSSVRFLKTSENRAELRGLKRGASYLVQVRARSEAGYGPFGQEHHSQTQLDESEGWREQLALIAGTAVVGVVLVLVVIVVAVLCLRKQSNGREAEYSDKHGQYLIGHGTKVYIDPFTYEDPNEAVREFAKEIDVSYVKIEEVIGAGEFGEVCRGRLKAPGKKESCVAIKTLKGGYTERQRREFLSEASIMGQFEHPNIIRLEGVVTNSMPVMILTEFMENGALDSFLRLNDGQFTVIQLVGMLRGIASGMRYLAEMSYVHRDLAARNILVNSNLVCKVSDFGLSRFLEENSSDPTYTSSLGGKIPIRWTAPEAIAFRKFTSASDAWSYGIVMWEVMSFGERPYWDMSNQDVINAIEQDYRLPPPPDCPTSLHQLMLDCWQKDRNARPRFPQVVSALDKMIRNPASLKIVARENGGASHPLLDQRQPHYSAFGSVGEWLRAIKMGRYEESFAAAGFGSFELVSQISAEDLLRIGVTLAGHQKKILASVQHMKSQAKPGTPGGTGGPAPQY
From the text: A standard image-based quantitative Western blotting assay for EphB4 kinase activity can be used to test or screen the compounds of this invention and to identify EphB4 antagonists.
The kinase activity of EphB4 in cells depends on its autophosphorylation level stimulated by the binding to its ligand Ephrin-B2. High level of EphB4 autophosphorylation in PC-3 human prostate cancer cells (ATCC, USA) induced by the application of Ephrin-B2 to the cell culture can be observed by regular Western blotting assay.
A compound to be tested was first dissolved in DMSO to a concentration of 10 mM and stored at −20° C. On the day of screening procedure, the compound in DMSO was added into DMEM medium to a final concentration of 100 nM. Two hours later, Ephrin-B2 ([…]) was added into DMEM medium to stimulate the production of phosphor-EphB4. The phosphor-EphB4 was detected based on its molecular weight and with anti-phosphor protein antibody PY-20 in cell lysate from approximately 5×10^5 PC-3 cells by Western blotting followed by imaging quantification. The relative level of EphB4 kinase activity was quantified as the ratio between the amount of phosphor-EphB4 and that of total Actin proteins.

Rat liver microsome = experiment: Liver microsomal stability assay, rat; assay type: in vitro ADME; design: key: A: the percentage of a compound remains is greater than that of its deuterium non-enriched counterpart; B: a result otherwise; conditions: 40 μM, 37° C., 30 min, 1 mg/ml microsome proteins; class relative to deuterium non-enriched counterpart
Description: A standard liver microsomal stability assay can be used to test or screen the compounds of this invention and to identify compounds with enhanced metabolic stability due to the enrichment of deuterium in the compounds. Liver microsome proteins prepared from different species such as mouse and rat were obtained from a commercial source (Research Institute for Liver Diseases, Shanghai, China). The assay was conducted in 1.5% potassium hydrogenphosphate (K2HPO4) in the presence of liver microsome proteins at 1 mg/ml and supplemented with an […] (3.3 mM NADPH, 3.3 mM glucose-6-phosphate, 6 units/ml G6PDase, and 3.3 mM magnesium chloride). Test compound was added into the assay mixture to a final concentration of 40 μM and incubated at 37° C. for 0 or 30 minutes. The reaction was stopped by the addition of 20 μM Bifonazole/CAN. Samples were then centrifuged at 14000 rpm for 10 minutes to precipitate proteins. Supernatant were then transferred to microcentrifuge tubes and subject to reverse phase HPLC analysis to determine the concentration of test compound.
The percentage of compounds that remained in the assay reactions after a thirty-minute incubation at 37° C. is calculated as the ratio between the amount of compound remained after a thirty-minute and that after a zero-minute incubation.

amount detected in blood after oral dosing ([1]; mice, 0.25 hour after 50 mg/kg oral dosing)	bioavailability ([1]; mouse, plasma, male ICR mice, 50 mg/kg oral, AUC to infinity oral vs intravenous)	half-life ([1]; mouse, whole blood, male ICR mice, 50 mg/kg oral)	remaining activity at 0.1 µM (EphB4)	% of compound remained at the 30th minutes, Rat liver microsome (Rat liver microsome)	Compound
substantial amounts	> 88%	2.3 to 3.5 h	< 70%	A	Cl.[2H]C([2H])(c1ccnc(N)c1)n1ccc2c(NC(=O)Nc3cc(Cl)ccc3OC)cccc21 [Example 2, 1-[1-[(2-amino-4-pyridyl)-dideuteriomethyl]indol-4-yl]-3-(5-chloro-2-methoxyphenyl)urea hydrochloride]
			≥ 70%	A	[2H]C(c1c[nH]c2ncccc12)N1CCc2c(NC(=O)Nc3cccc(C)c3)cccc21 (stereo not drawn) [Example 21, 1-[1-[Deuterio(1H-pyrrolo[2,3-b]pyridin-3-yl)methyl]indolin-4-yl]-3-(m-tolyl)urea]
			≥ 70%	B	[2H]C(c1c[nH]c2ncccc12)n1ccc2c(NC(=O)Nc3cccc(C)c3)cccc21 (stereo not drawn) [Example 22, 1-[1-[deuterio(1H-pyrrolo[2,3-b]pyridin-3-yl)methyl]indol-4-yl]-3-(m-tolyl)urea]
